Where two headings read alike, the source gives them in different places.
Columns and labels:
[1] = Thermogravimetric analysis (TGA); type: physicochemical
[2] = In-situ extraction: IL injection through column packed with oil sand; details: 100 g oil sand, 0.5 mL/min for 26 h, 24 h soak, 2 h re-injection
Experimental: 100 g dry oil sand was packed into a steel tube (1.5×30 cm). The packed steel tube then was mounted into apparatus to allow injection of desired fluid through the oil sand while collecting the effluent for subsequent analysis (FIG. 61). The injection of [C8NH3][Oleate] was continuous for 26 h at an injection rate of 0.5 mL/min, and the injection pressure was stabilized in the range 1940-2000 kPa. The breakthrough time was around 35 min. This indicates the pore volume was around 17.5 ml. The total amount of [C8NH3][Oleate] injected was around 783 ml. […] At the first 2.5 h of injection, the bitumen recovery is significant, and the fluid recovered is black. However, with continuing injection the black intensity decreases gradually till the effluent is clear [C8NH3][Oleate] after 26 h.
After 26 h of injection, the pump was stopped and the [C8NH3][Oleate]/Oil sand system in the steel column was left to soak for 24 h. Then injection was re-started with the same injection rate (0.5 mL/min) and the pressure stabilized at around 1850 kPa (similar level before soaking). The blackness of the fluid samples recovered during 2 h of injection post-soaking is not as intense as that during the same time for [C8NH3][Oleate] injection into the fresh oil sand. […]
After terminating the experiment, the bitumen still in the oil sand was quantified using Dean Stark.

octylammonium oleate [[C8NH3][Oleate]]
thermal decomposition temperature [1]: 129 °C
bitumen remaining in oil sand by Dean Stark extraction, of the initial amount of bitumen [2]: 47.34%
[C8NH3][Oleate] solubility (solvent: Acetonitrile): − (Insoluble (0.2 g in 3 mL solvent))
[C8NH3][Oleate] solubility (solvent: Chloroform): + (Soluble (0.2 g in 0.5 mL solvent))
[C8NH3][Oleate] solubility (solvent: DI water): − (Insoluble (0.2 g in 3 mL solvent))
[C8NH3][Oleate] solubility (solvent: Dichlorobenzene): + (Soluble (0.2 g in 0.5 mL solvent))
[C8NH3][Oleate] solubility (solvent: Dichloromethane): + (Soluble (0.2 g in 0.5 mL solvent))
[C8NH3][Oleate] solubility (solvent: Dimethyl sulfoxide): − (Insoluble (0.2 g in 3 mL solvent))
[C8NH3][Oleate] solubility (solvent: Hexane): + (Soluble (0.2 g in 0.5 mL solvent))
[C8NH3][Oleate] solubility (solvent: Methanol): + (Soluble (0.2 g in 0.5 mL solvent))
[C8NH3][Oleate] solubility (solvent: Xylene): + (Soluble (0.2 g in 0.5 mL solvent))

Source: patent publication US12172919B2, “Deconstruction of oilsand materials using ionic liquids” (ADJACENCY LABS CORP., priority 2017, dated 2024)
